Measured values as given in patent publication US11987586B1 (TAKEDA PHARMACEUTICAL COMPANY LIMITED, priority 2022, dated 2024).

Molecular target: T1, human OX2 receptor (Homo sapiens, UniProt O43614)
T1 construct: expressed in transfected cells
T1 sequence (O43614 1-444): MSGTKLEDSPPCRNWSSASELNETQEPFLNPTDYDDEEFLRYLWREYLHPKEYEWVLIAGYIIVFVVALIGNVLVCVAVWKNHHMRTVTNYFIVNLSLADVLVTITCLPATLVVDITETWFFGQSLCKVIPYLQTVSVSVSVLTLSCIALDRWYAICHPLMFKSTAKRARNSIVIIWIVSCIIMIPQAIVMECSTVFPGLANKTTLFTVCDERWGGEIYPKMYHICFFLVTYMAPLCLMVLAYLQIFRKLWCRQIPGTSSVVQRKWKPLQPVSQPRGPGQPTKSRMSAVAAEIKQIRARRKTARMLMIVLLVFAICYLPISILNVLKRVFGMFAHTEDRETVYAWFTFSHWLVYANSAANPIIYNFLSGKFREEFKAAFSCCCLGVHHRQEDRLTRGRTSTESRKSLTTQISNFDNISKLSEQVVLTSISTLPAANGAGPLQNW
Experiment: Measurement of orexin type 2 receptor agonist activity (calcium fluorescence, Fluo-4, FDSS)
Format: cell-based
Conditions: 3 uM test compound; CHO cells expressing human OX2 receptor; DMSO = 0%, 10 nM orexin A (human) = 100%
How it was run: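 Agonist activity (%) was normalised to the response to 10 nM final human orexin A (100%) and to the DMSO vehicle (0%). The response was measured as the Fluo-4 calcium signal, read kinetically over 1 min 40 s after compound addition to Fluo-4/probenecid-loaded stable CHO-K1 clones expressing human OX2 (aa 1-444).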

OX2R agonist activity (3 uM, %) [%]	SMILES
103	O=C1N(c2noc3cc(OC(F)F)cc(-c4c(F)cccc4F)c23)CC[C@H]2N1C[C@@H](NS(=O)(=O)C1CC1)C2(F)F [Example 256, N-{(4aR,6R)-2-[6-(difluoromethoxy)-4-(2,6-difluorophenyl)-1,2-benzoxazol-3-yl]-5,5-difluoro-1-oxooctahydropyrrolo[1,2-c]pyrimidin-6-yl}cyclopropanesulfonamide]
79	Cn1nc2cccc(-c3c(F)cccc3F)c2c1-n1cc2n(c1=O)C[C@@H](NS(C)(=O)=O)C2 [Example 88, N-{(6S)-2-[4-(2,6-difluorophenyl)-2-methyl-2H-indazol-3-yl]-3-oxo-2,5,6,7-tetrahydro-3H-pyrrolo[1,2-c]imidazol-6-yl}methanesulfonamide]
114	Cc1cc2onc(-n3cc4n(c3=O)C[C@@H](NS(=O)(=O)CF)C4(F)F)c2c(-c2c(F)cc(F)cc2F)n1 [Example 201, N-{(6R)-7,7-difluoro-2-[6-methyl-4-(2,4,6-trifluorophenyl)[1,2]oxazolo[4,5-c]pyridin-3-yl]-3-oxo-2,5,6,7-tetrahydro-3H-pyrrolo[1,2-c]imidazol-6-yl}-1-fluoromethanesulfonamide]
101	O=c1n(-c2noc3cc(C(F)F)cc(-c4c(F)cccc4F)c23)cc2n1C[C@@H](NS(=O)(=O)CF)C2(F)F [Example 306, N-{(6R)-2-[6-(difluoromethyl)-4-(2,6-difluorophenyl)-1,2-benzoxazol-3-yl]-7,7-difluoro-3-oxo-2,5,6,7-tetrahydro-3H-pyrrolo[1,2-c]imidazol-6-yl}-1-fluoromethanesulfonamide]
101	O=C1N(c2noc3cc(F)cc(-c4c(F)cccc4F)c23)C[C@H]2N1C[C@@H](NS(=O)(=O)CF)C2(F)F [Example 287, N-{(6R,7aR)-2-[4-(2,6-difluorophenyl)-6-fluoro-1,2-benzoxazol-3-yl]-7,7-difluoro-3-oxohexahydro-1H-pyrrolo[1,2-c]imidazol-6-yl}-1-fluoromethanesulfonamide]
105	CCOc1cc(-c2c(F)cccc2F)c2c(N3CC[C@H]4N(C[C@@H](NS(C)(=O)=O)C4(F)F)C3=O)noc2c1 [Example 199, N-{(4aR,6R)-2-[4-(2,6-difluorophenyl)-6-ethoxy-1,2-benzoxazol-3-yl]-5,5-difluoro-1-oxooctahydropyrrolo[1,2-c]pyrimidin-6-yl}methanesulfonamide]
106	CS(=O)(=O)N[C@@H]1CN2C(=O)N(c3noc4cccc(-c5ccc(F)cc5F)c34)CC[C@@H]2C1(F)F [Example 290, N-{(4aR,6R)-2-[4-(2,4-difluorophenyl)-1,2-benzoxazol-3-yl]-5,5-difluoro-1-oxooctahydropyrrolo[1,2-c]pyrimidin-6-yl}methanesulfonamide]
97	CCS(=O)(=O)N[C@@H]1Cn2c(cn(-c3noc4cc(C(F)F)cc(-c5c(F)cc(F)cc5F)c34)c2=O)C1(F)F [Example 165, N-{(6R)-2-[6-(difluoromethyl)-4-(2,4,6-trifluorophenyl)-1,2-benzoxazol-3-yl]-7,7-difluoro-3-oxo-2,5,6,7-tetrahydro-3H-pyrrolo[1,2-c]imidazol-6-yl}ethanesulfonamide]
106	CS(=O)(=O)NC1Cn2c(cn(-c3noc4cc(F)cc(-c5c(F)cc(F)cc5F)c34)c2=O)CC1(F)F (single isomer, unassigned) [Example 214, N-{(6R*)-7,7-difluoro-2-[6-fluoro-4-(2,4,6-trifluorophenyl)-1,2-benzoxazol-3-yl]-3-oxo-2,3,5,6,7,8-hexahydroimidazo[1,5-a]pyridin-6-yl}methanesulfonamide]
98	CCS(=O)(=O)N[C@@H]1CN2C(=O)N(c3noc4cc(F)c(F)c(-c5c(F)cc(F)cc5F)c34)C[C@@H]2C1(F)F [Example 172, N-{(6R,7aR)-2-[5,6-difluoro-4-(2,4,6-trifluorophenyl)-1,2-benzoxazol-3-yl]-7,7-difluoro-3-oxohexahydro-1H-pyrrolo[1,2-c]imidazol-6-yl}ethanesulfonamide]
97	CCS(=O)(=O)N[C@@H]1CN2C(=O)N(c3noc4cccc(-c5ccc(F)cc5C)c34)CC[C@@H]2C1(F)F [Example 323, N-{(4aR,6R)-5,5-difluoro-2-[4-(4-fluoro-2-methylphenyl)-1,2-benzoxazol-3-yl]-1-oxooctahydropyrrolo[1,2-c]pyrimidin-6-yl}ethanesulfonamide]
88	CCS(=O)(=O)N[C@@H]1CN2C(=O)N(c3noc4cccc(-c5c(F)cccc5F)c34)C[C@]2(C)C1 [Example 57, N-{(6S,7aS)-2-[4-(2,6-difluorophenyl)-1,2-benzoxazol-3-yl]-7a-methyl-3-oxohexahydro-1H-pyrrolo[1,2-c]imidazol-6-yl}ethanesulfonamide]
100	Cc1cc(-c2c(F)cc(F)cc2F)c2c(N3CC[C@H]4N(C[C@@H](NS(C)(=O)=O)C4(F)F)C3=O)noc2n1 [Example 258, N-{(4aR,6R)-5,5-difluoro-2-[6-methyl-4-(2,4,6-trifluorophenyl)[1,2]oxazolo[5,4-b]pyridin-3-yl]-1-oxooctahydropyrrolo[1,2-c]pyrimidin-6-yl}methanesulfonamide]
96	CCS(=O)(=O)N[C@@H]1CN2C(=O)N(c3noc4cccc(-c5c(F)cccc5F)c34)C[C@@H]2C1(C)C [Example 6, N-{(6S,7aS)-2-[4-(2,6-difluorophenyl)-1,2-benzoxazol-3-yl]-7,7-dimethyl-3-oxohexahydro-1H-pyrrolo[1,2-c]imidazol-6-yl}ethanesulfonamide]
100	O=C1N(c2noc3cccc(-c4c(F)cccc4F)c23)C[C@@H]2C[C@H](NS(=O)(=O)C(F)F)CN12 [Example 43, N-{(6S,7aS)-2-[4-(2,6-difluorophenyl)-1,2-benzoxazol-3-yl]-3-oxohexahydro-1H-pyrrolo[1,2-c]imidazol-6-yl}-1,1-difluoromethanesulfonamide]
97	CCS(=O)(=O)N[C@H]1C[C@H]2CN(c3noc4ccc(F)c(-c5c(F)cccc5F)c34)C(=O)N2C1 [Example 66, N-{(6S,7aS)-2-[4-(2,6-difluorophenyl)-5-fluoro-1,2-benzoxazol-3-yl]-3-oxohexahydro-1H-pyrrolo[1,2-c]imidazol-6-yl}ethanesulfonamide]
111	CCc1cc(-c2c(F)cc(F)cc2F)c2c(-n3cc4n(c3=O)C[C@@H](NS(C)(=O)=O)C4(F)F)noc2n1 [Example 230, N-{(6R)-2-[6-ethyl-4-(2,4,6-trifluorophenyl)[1,2]oxazolo[5,4-b]pyridin-3-yl]-7,7-difluoro-3-oxo-2,5,6,7-tetrahydro-3H-pyrrolo[1,2-c]imidazol-6-yl}methanesulfonamide]
107	O=c1n(-c2noc3cc(F)cc(-c4c(F)cccc4F)c23)cc2n1C[C@@H](NS(=O)(=O)CF)C2(F)F [Example 283, N-{(6R)-2-[4-(2,6-difluorophenyl)-6-fluoro-1,2-benzoxazol-3-yl]-7,7-difluoro-3-oxo-2,5,6,7-tetrahydro-3H-pyrrolo[1,2-c]imidazol-6-yl}-1-fluoromethanesulfonamide]
103	CS(=O)(=O)N[C@@H]1Cn2c(cn(-c3noc4cc(Cl)c(F)c(-c5c(F)cc(F)cc5F)c34)c2=O)C1(F)F [Example 106, N-{(6R)-2-[6-chloro-5-fluoro-4-(2,4,6-trifluorophenyl)-1,2-benzoxazol-3-yl]-7,7-difluoro-3-oxo-2,5,6,7-tetrahydro-3H-pyrrolo[1,2-c]imidazol-6-yl}methanesulfonamide]
106	CS(=O)(=O)N[C@@H]1CN2C(=O)N(c3noc4cccc(-c5ccc(F)cc5)c34)CC[C@@H]2C1(F)F [Example 277, N-{(4aR,6R)-5,5-difluoro-2-[4-(4-fluorophenyl)-1,2-benzoxazol-3-yl]-1-oxooctahydropyrrolo[1,2-c]pyrimidin-6-yl}methanesulfonamide]
96	CCS(=O)(=O)N[C@@H]1CN2C(=O)N(c3noc4cc(F)cc(-c5c(F)cccc5F)c34)C[C@@H]2C1(F)F [Example 69, N-{(6R,7aR)-2-[4-(2,6-difluorophenyl)-6-fluoro-1,2-benzoxazol-3-yl]-7,7-difluoro-3-oxohexahydro-1H-pyrrolo[1,2-c]imidazol-6-yl}ethanesulfonamide]
103	CS(=O)(=O)N[C@@H]1CN2C(=O)N(c3noc4cc(OC(F)F)cc(-c5c(F)cc(F)cc5F)c34)C[C@@H]2C1(F)F [Example 193, N-{(6R,7aR)-2-[6-(difluoromethoxy)-4-(2,4,6-trifluorophenyl)-1,2-benzoxazol-3-yl]-7,7-difluoro-3-oxohexahydro-1H-pyrrolo[1,2-c]imidazol-6-yl}methanesulfonamide]
105	CCS(=O)(=O)N[C@H]1Cc2c(C)n(-c3noc4cccc(-c5c(F)cccc5F)c34)c(=O)n2C1 [Example 12, N-{(6S)-2-[4-(2,6-difluorophenyl)-1,2-benzoxazol-3-yl]-1-methyl-3-oxo-2,5,6,7-tetrahydro-3H-pyrrolo[1,2-c]imidazol-6-yl}ethanesulfonamide]
